Test results: patent publication US12459891B2, “1-[1-(4-benzyloxy-3,5-difluoro-benzoyl)-4-fluoro-pyrrolidine-2-carbonyl]-pyrrolidine-2-carbonitrile” (ACCURE THERAPEUTICS, S.L., priority 2020, dated 2025)

Tests used:
[1] = Parallel artificial membrane permeability assay (PAMPA), BBB passive diffusion; type: in vitro ADME; conditions: pH 7.4, 4 hours; for % R (compound retention of the phospholipid membrane), PAMPA / % T (percentage of transport), PAMPA: 200 μM; for Papp at 4 h, 200 μM: pig, PAMPA, room temperature, read-out: Effective permeability Pe
Procedure: Parallel artificial membrane permeability assay (PAMPA) described in Kansy M et al., J. Med. Chem. 1998; 41(7):1007-10 was used to determine the capacity of compounds to cross the Blood-Brain Barrier (BBB) by passive diffusion (Di L et al., Eur. J. Med. Chem. 2003; 38(3):223-32). The effective permeability (Pe) of the compounds was measured at an initial concentration of 200 μM. The buffer solution was prepared from a commercial concentrated one following the manufacturer's instructions. pH was adjusted to 7.4 using a 0.5 M NaOH solution. A stock solution of new compound was prepared in DMSO and diluted with buffer solution to a final 200 μM concentration (0.5% DMSO content). The PAMPA sandwich was separated and each donor well was filled with 200 μL of the compound solution. The acceptor plate was placed into the donor plate, ensuring that the underside of the membrane was in contact with buffer. 4 μL of the mixture of phospholipids (20 mg/mL) in dodecane was added to the filter of each well, and 200 μL of buffer solution was added to the each acceptor well. The plate was covered and incubated at room temperature in a saturated humidity atmosphere for 4 hours under orbital agitation at 100 rpm. After 4 hours, the contents of the acceptor and donor compartments were analyzed by HPLC: 150 μL of each well from the donor plate and 150 μL of each well from the acceptor plate were transferred to HPLC vials, injecting each sample into a reverse-phase C18 column (150 mm×4.6 mm×5 μm, 100 Å) (100 μL/injection from the acceptor wells, 10 μL/injection from the donor wells and for t0 references). Transport was also confirmed by MALDI-TOF spectrometry.
The phospholipid mixture used was a porcine polar brain lipid extract, provided by Avanti polar lipids, with the following composition: 12.6% phosphatidylcholine (PC), 33.1% phosphatidylethanolamine (PE), 18.5% phosphatidylserine (PS), 4.1% phosphatidylinositol (PI), 0.8% phosphatidic acid and 30.9% of other compounds.
The effective permeability (Pe) after 4 hours was calculated using equation 2, the percentage of transport (T %) was calculated using equation 3 and the compound retention (R %) of the phospholipid membrane using equation 4:
[formula] [formula] [formula] wherein: • t is time (h) • CA(t) is the compound concentration in the acceptor well at time t, CD(t) is the compound concentration in donor well at time t • and CD(t0) is the compound concentration in the donor well at t0.

[2] = Microsomal stability (rat); type: in vitro ADME; conditions: Sprague-Dawley, pooled liver microsomes, pH 7.4; rat liver microsomes 0.5 mg/mL, 1 μM compound, 37° C., NADPH regenerating system
Procedure: The stability of the compounds in rat (Sprague-Dawley) pooled liver microsomes (catalog number 452501) was investigated according to the instructions provided by the vendor (BD Bioscience). A stock solution (500 μM) of the compound to be tested was prepared in DMSO. Two μL of the compounds were incubated at 1 μM final concentration in a mixture of: • 713 μL of H2O • 200 μL of 0.5 M potassium phosphate (pH 7.4) • 50 μL of NADPH regenerating system solution A (BD Bioscience, catalog number 451220) • 10 μL of NADPH regenerating system solution B (BD Bioscience, catalog number 451200)
The resulting mixture was warmed to 37° C. for 5 min. After which, 25 μL of liver microsomes were added at a final concentration of 0.5 mg/mL. The mixture was incubated at 37° C. with orbital agitation (100 rpm). At selected time points, 100 μL aliquots were extracted and mixed with 100 μL of acetonitrile. The obtained precipitate was shake in a vortex for 1 minute. Samples were kept at 4° C. for 30 min, after which, samples were centrifuged at 20,000×g at 4° C. for 30 min. The supernatant was filtered out and subsequently analysed by UPLC-MS. All stability tests were performed in duplicates.

[3] = PK in mice after intravenous bolus; type: in vivo; conditions: male, Swiss Albino, mouse, plasma, 1 mg/kg intravenous bolus; for Vd: read-out: Vss
Procedure: The pharmacokinetics of the compounds following intravenous bolus administration was conducted in male Swiss Albino mice. The study was conducted in accordance with the guidelines of the Institutional Animal Ethics Committee (IAEC) and in accordance with the requirements of Committee for the Purpose of Control and Supervision of Experiments on Animals (CPCSEA), India.
Study was conducted in 12 mice per compound using sparse sampling design (n=3/time point) to produce composite profile. The compounds were dissolved in 2% Twee80® in saline (0.9 NaCl) at a concentration of 0.5 mg/mL. Mice were administered a single dose of 1 mg/kg of the compound solution by intravenous bolus through lateral tail vein using 1 mL BD syringe guided with 26G needle at a dose volume of 2 mL/kg.
Blood samples were collected (n=3 per time point) at 0.083, 0.25, 0.5, 1, 2, 4, 6, 8, 24 and 48 h post-dose. At each time point, 120 μL of blood was collected by retro orbital plexus puncture and transferred into a labeled microfuge tube containing 200 mM K2EDTA solution (20 μL per mL of blood). The blood samples were centrifuged at 5000×g for 5 min at 4±2° C. Plasma samples were stored below −60° C. until bioanalysis.
Plasma samples were analyzed using a LC-MS/MS method with LLOQ of 1.06 ng/mL. Pharmacokinetic parameters in plasma were calculated using the non-compartmental analysis tool of the validated Phoenix WinNonlin® software (version 6.3). The area under the concentration time curve (AUClast) was calculated by linear trapezoidal rule. Peak plasma concentration (Cmax) and time to reach the peak plasma concentration (Tmax) were the observed values. Clearance (CL) and volume of distribution (Vss) were predicted values.

| % R (compound retention of the phospholipid membrane), PAMPA [1] [%] | % T (percentage of transport), PAMPA [1] [%] | Papp at 4 h, 200 μM [1] [×10⁻⁶ cm/s] | half-life at 1 μM [2] [min] | AUC(0-t) [3] [ng·h/mL] | clearance [3] [mL/min/kg] | Vd [3] [L/kg] | SMILES |
| --- | --- | --- | --- | --- | --- | --- | --- |
| 10.93 | 29.92 | 22.1 | < 5 | 131 | 126 | 0.64 | COc1cc(C(=O)N2CC(F)(F)C[C@H]2C(=O)N2CCC[C@H]2C#N)cc(OC)c1OCc1ccccc1 [Comp Ex. 3, (S)-1-((2S)-1-(4-(benzyloxy)-3,5-dimethoxybenzoyl)-4,4-difluoropyrrolidine-2-carbonyl)pyrrolidine-2-carbonitrile] |
|  | 10.43 |  | < 5 | 22.7 | 697 | 9.06 | N#C[C@@H]1CCCN1C(=O)[C@@H]1CC(F)(F)CN1C(=O)c1ccc(OCc2ccccc2)c(F)c1 [Comp Ex. 4, (S)-1-((S)-1-(4-(benzyloxy)-3-fluorobenzoyl)-4,4-difluoropyrrolidine-2-carbonyl) pyrrolidine-2-carbonitrile] |
| 24 | 18.1 | 4.7 | 12 | 127 | 99.6 | 1.19 | N#C[C@@H]1CCCN1C(=O)[C@@H]1C[C@@H](F)CN1C(=O)c1cc(F)c(OCc2ccccc2)c(F)c1 [Example 1, (S)-1-((2S,4R)-1-(4-(benzyloxy)-3,5-difluorobenzoyl)-4-fluoropyrrolidine-2-carbonyl)pyrrolidine-2-carbonitrile] |
